From US11136324B2, “Substituted imidazoles as apoptosis signal regulating kinase 1 inhibitors” (Jiangsu Hansoh Pharmaceutical Group Co., Ltd., priority 2017, dated 2021)
pIC50: −log10 of the molar value.

Key:
[1] = tested on: non-alcoholic steatohepatitis mice induced by HFD (high fat diet)+CCl4; test: Effect on serum ALT and AST levels of non-alcoholic steatohepatitis mice induced by HFD+CCl4; type: in vivo, C57BL/6 mice; set-up: concentration or dose not given beside the values; settings: oral once a day for 28 days, versus solvent control group
From the text: 3. The effect of the compounds of the present invention on the ALT and AST levels of non-alcoholic steatohepatitis mice induced by HFD (high fat diet)+CCl4
The object of this test example is to determine whether the compounds of the present invention can down-regulate the ALT and AST levels in the serum of non-alcoholic steatohepatitis mice or not.
C57BL/6 mice were adaptively fed in a SPF (specific pathogen free) barrier for 3 to 7 days, and then fed with HFD feed with a feeding cycle of 8 weeks. At the fifth week of HFD feeding, the HFD-induced mice were randomly grouped according to body weight, and orally administrated with CCl4 twice a week for 4 weeks. At the day of modeling with CCl4, the test compounds were orally administrated once a day continuously for 28 days. The solvent control group was administrated with the corresponding solvent of the test compounds with an administration volume of 10 mL/kg. The mice were euthanized with CO2 48 hours after the last administration of CCl4, and the non-anticoagulated venous blood was collected from the heart. The whole blood was left to stand at room temperature for at least 30 minutes, and then centrifuged for 5 minutes at 4° C. at 5000 rpm to separate the serum. The serum was dispensed into two portions in 1.5 mL EP tubes, and stored at −80° C. for later use.
The ALT and AST levels in mice serum were determined using the alanine aminotransfease (ALT/GPT) kit and aspartate aminotransferase (AST/GOT) kit. The ALT (or AST) test substrate solution was preheated in a 37° C. incubator; 20 μL of substrate solution were pipetted into a 96-well plate, and 5 μL of serum were pipetted into the 96-well plate as test well. After mixing well, the plate was sealed using a sealing film, and placed into the 37° C. incubator to incubate for 30 min. The ALT (or AST) standard curve was formulated, and 25 μL of which were pipetted into the 96-well plate; 20 μL of […] were pipetted into the 96-well plate as control well; 20 μL of 2,4-dinitrophenylhydrazine solution were added to each well. After mixing well, the plate was sealed using a sealing film, and placed into the 37° C. incubator to incubate for 20 min. 200 μL of 0.4 M NaOH solution were added to each well. The plate was placed on a shaker to shake for 15 min, and then measured on the BioTek Synergy H1 instrument using OD detection program at a wavelength of 510 nm. The absolute OD value was calculated from the OD value of each well. Absolute OD value=OD value of measured well−OD value of control well. The absolute OD value was taken into the standard curve to obtain the ALT (or AST) content of the sample. Samples that exceed the standard curve range should be re-tested after diluting the serum to an appropriate concentration. Data processing: (% ALT reduction rate)=(solvent control group−test compound)/solvent control group×100%; (% AST reduction rate)=(solvent control group−test compound)/solvent control group×100%.

[2] = Pharmacokinetic (PK) assay in mice; type: in vivo; settings: Balb/c male mice, single intragastric administration, 5 mg/kg, plasma; for AUC(0-t) / AUC(0-inf) / half-life / MRT / Cmax: mouse, po; for AUC(0-t): read-out: Area under curve AUC0-t; for AUC(0-inf): read-out: Area under curve AUC0-∞; for half-life: read-out: Half-life t1/2 (converted); for MRT: read-out: Mean residence time MRT; for Cmax: read-out: Plasma concentration Cmax
Description: 2. Pharmacokinetic (PK) Assay in Mice
The pharmacokinetic test of the preferred examples of the present invention in mice was carried out in Balb/c male mice (Shanghai Jiesijie Laboratory Animal Co., LTD).
Administration mode: single intragastric administration.
Administration dosage: 5 mg/10 ml/kg.
Formulation: 0.5% CMC-Na, ultrasonic dissolution.
Sampling points: 0.5, 1, 2, 4, 6, 8 and 24 hours after administration.
1) 0.1 mL of blood was taken from the orbit, placed in a K2EDTA tube, and centrifuged for 5˜20 min at room temperature at 1000˜3000×g to separate the plasma, which was then stored at −80° C.
2) 160 μL of acetonitrile was added to 40 μL of plasma sample for precipitation, and then the mixture was centrifuged for 5˜20 minutes at 500˜2000×g.
3) 100 μL, of processed supernatant was taken and analyzed by LC/MS/MS assay to determine the concentration of the test compound.
LC-MS/MS Assay: • Liquid chromatography condition: Shimadzu LC-20AD pump • Mass spectrometry condition: AB Sciex API 4000 mass spectrometer • Chromatographic column: phenomenex Gemiu 5 μm C18 50×4.6 mm • Mobile phase: solution A was 0.1% aqueous formic acid solution, and solution B was acetonitrile • Flow rate: 0.8 mL/min • Elution time: 0-3.5 minutes gradient elution
The main parameters were calculated using WinNonlin 6.1.

ASK1 kinase = ASK1 kinase (Homo sapiens (Human), UniProt Q99683); test: ASK1 enzymatic test (TR-FRET); type: biochemical; settings: ASK1 kinase activity
Description: In this test, the fluorescence-resonance energy transfer (TR-FRET) method was used to determine the inhibition effect of the test compounds on ASK1 kinase activity, and the half maximal inhibitory concentration IC50 of the compounds on ASK1 kinase activity was obtained.
1) 1˜5 μL of ASK1 enzyme solution was added to a 384-well plate, and the final concentration of the enzyme was 0.220 nM.
2) 1˜5 μL of gradient-diluted compound solution was added.
3) 1˜5 μL of a substrate mixture containing substrate polypeptides (final concentration: 100˜5000 nM) and ATP (final concentration: 100˜1000 uM) were added.
4) The mixture was incubated at room temperature for 0.5 to 5 hours.
5) 10 μL of EDTA and test solution containing labeled antibody were added, and the plate was incubated at room temperature for 2 to 24 hours.
6) The fluorescence signal value of each well was determined by a microplate reader at about 615 nm and 665 nm.
7) The inhibition rate was calculated by the fluorescence signal value.
8) The IC50 of the compound was obtained by curve fitting according to the inhibition rate at different concentrations.

Sequence of ASK1 kinase (Q99683 whole entry): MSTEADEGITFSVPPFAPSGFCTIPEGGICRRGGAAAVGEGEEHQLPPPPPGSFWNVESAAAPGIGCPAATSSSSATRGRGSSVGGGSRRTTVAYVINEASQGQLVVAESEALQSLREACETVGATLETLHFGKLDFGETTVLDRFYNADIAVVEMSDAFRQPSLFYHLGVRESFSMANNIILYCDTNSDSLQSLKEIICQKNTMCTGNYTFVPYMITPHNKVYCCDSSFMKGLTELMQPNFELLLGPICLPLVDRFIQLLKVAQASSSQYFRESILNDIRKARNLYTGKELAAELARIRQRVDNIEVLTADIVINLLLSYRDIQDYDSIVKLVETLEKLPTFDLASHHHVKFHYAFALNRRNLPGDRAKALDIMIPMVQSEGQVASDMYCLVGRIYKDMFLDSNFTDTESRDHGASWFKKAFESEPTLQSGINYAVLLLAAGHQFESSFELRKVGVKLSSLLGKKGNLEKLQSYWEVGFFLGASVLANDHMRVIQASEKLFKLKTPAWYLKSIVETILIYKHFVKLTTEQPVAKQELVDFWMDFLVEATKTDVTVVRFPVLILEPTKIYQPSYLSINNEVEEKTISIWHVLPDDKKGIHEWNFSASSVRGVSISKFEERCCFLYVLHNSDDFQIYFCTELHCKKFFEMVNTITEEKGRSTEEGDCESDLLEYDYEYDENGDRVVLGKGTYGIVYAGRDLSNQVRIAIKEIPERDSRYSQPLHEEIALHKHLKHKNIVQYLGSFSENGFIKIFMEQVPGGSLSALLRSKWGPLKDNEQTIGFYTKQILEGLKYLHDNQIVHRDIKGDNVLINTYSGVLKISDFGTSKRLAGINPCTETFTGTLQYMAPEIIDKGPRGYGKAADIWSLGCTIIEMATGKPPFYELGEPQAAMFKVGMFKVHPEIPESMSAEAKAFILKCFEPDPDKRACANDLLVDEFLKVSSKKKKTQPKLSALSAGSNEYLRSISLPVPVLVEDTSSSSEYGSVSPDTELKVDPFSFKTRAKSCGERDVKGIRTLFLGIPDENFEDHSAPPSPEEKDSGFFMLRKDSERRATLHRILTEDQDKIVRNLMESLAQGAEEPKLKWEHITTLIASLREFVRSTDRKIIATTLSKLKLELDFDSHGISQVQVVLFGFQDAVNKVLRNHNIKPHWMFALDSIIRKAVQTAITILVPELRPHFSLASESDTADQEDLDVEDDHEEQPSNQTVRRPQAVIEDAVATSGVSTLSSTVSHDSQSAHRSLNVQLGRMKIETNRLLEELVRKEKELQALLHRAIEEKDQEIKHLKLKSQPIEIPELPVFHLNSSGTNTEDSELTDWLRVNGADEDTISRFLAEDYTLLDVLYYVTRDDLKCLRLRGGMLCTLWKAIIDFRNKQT

Compound | Peak time tmax [2] | AUC(0-t) [2] | AUC(0-inf) [2] | half-life [2] | MRT [2] | Cmax [2] | pIC50 (ASK1 kinase) | ALT(U/L) reduction rate (%) [1] | AST(U/L) reduction rate (%) [1]
Cc1cc(F)c(C(=O)Nc2cccc(-c3nnc4n3[C@H](C)CC4)n2)cc1-n1cnc(C(C)(C)C)c1 [Example 15, (R)-5-(4-(tert-Butyl)-1H-imidazol-1-yl)-2-fluoro-4-methyl-N-(6-(5-methyl-6,7-dihydro-5H-pyrrolo[2,1-c][1,2,4]triazol-3-yl)pyridin-2-yl)benzamide] |  |  |  |  |  |  | 8.85 | 54% | 58%
C=C[C@@H]1CCc2nnc(-c3cccc(NC(=O)c4cc(-n5cnc(C6CC6)c5)c(C)cc4F)n3)n21 [Example 37, (S)-5-(4-Cyclopropyl-1H-imidazol-1-yl)-2-fluoro-4-methyl-N-(6-(5-vinyl-6,7-dihydro-5H-pyrrolo[2,1-c][1,2,4]triazol-3-yl)pyridin-2-yl)benzamide] | 0.5 h | 43.9 µg·h/mL | 48 µg·h/mL | 2.1 h | 3.4 h | 11.7 µg/mL | 8.46 | 57% | 62%
Cc1cc2c(cc1-n1cnc(C3CC3)c1)C(=O)N(c1cccc(-c3nnc4n3[C@H](C(F)(F)F)CC4)n1)C2 [Example 65, (S)-6-(4-Cyclopropyl-1H-imidazol-1-yl)-5-methyl-2-(6-(5-(trifluoromethyl)-6,7-dihydro-5H-pyrrolo[2,1-c][1,2,4]triazol-3-yl)pyridin-2-yl)isoindolin-1-one] |  |  |  |  |  |  | 8.03 | 46% | 52%
Cc1cc(F)c(C(=O)Nc2cccc(-c3nncn3C(C)C)n2)cc1-n1cnc(C2CC2)c1 [GS-4997, reference compound] |  |  |  |  |  |  |  | 40% | 35%

The remaining compounds from weak to strong by pIC50 (ASK1 kinase), led by results:

Peak time tmax [2] | AUC(0-t) [2] | AUC(0-inf) [2] | half-life [2] | MRT [2] | Cmax [2] | pIC50 (ASK1 kinase) | Compound | ALT(U/L) reduction rate (%) [1] | AST(U/L) reduction rate (%) [1]
 |  |  |  |  |  | 8.26 | Cc1cc2c(cc1-n1cnc(C3CC3)c1)C(=O)N(c1cccc(-c3nnc4n3C3(CC4)CC3)n1)C2 [Example 64, 6-(4-Cyclopropyl-1H-imidazol-1-yl)-2-(6-(6′,7′-dihydrospiro[cyclopropane-1,5′-pyrrolo[2,1-c][1,2,4]triazol]-3′-yl)pyridin-2-yl)-5-methylisoindolin-1-one] | 51% | 47%
0.5 h | 26.8 µg·h/mL | 28.3 µg·h/mL | 1.7 h | 2.7 h | 10.7 µg/mL | 8.72 | Cc1cc(F)c(C(=O)Nc2cccc(-c3nnc4n3[C@H](C(F)(F)F)CC4)n2)cc1-n1cnc(C2CC2)c1 [Example 40, (S)-5-(4-Cyclopropyl-1H-imidazol-1-yl)-2-fluoro-4-methyl-N-(6-(5-(trifluoromethyl)-6,7-dihydro-5H-pyrrolo[2,1-c][1,2,4]triazol-3-yl)pyridin-2-yl)benzamide] | 50% | 65%
0.5 h | 80.9 µg·h/mL | 81.9 µg·h/mL | 3.9 h | 5.3 h | 12.2 µg/mL | 8.72 | C#C[C@@H]1CCc2nnc(-c3cccc(NC(=O)c4cc(-n5cnc(C6CC6)c5)c(C)cc4F)n3)n21 [Example 43, (S)-5-(4-Cyclopropyl-1H-imidazol-1-yl)-N-(6-(5-ethynyl-6,7-dihydro-5H-pyrrolo[2,1-c][1,2,4]triazol-3-yl)pyridin-2-yl)-2-fluoro-4-methylbenzamide] | 65% | 58%
0.5 h | 32.4 µg·h/mL | 32.4 µg·h/mL | 1.6 h | 3 h | 8.99 µg/mL | 9.00 | Cc1cc(F)c(C(=O)Nc2cccc(-c3nnc4n3C(C)(C)CC4)n2)cc1-n1cnc(C2CC2)c1 [Example 10, 5-(4-Cyclopropyl-1H-imidazol-1-yl)-N-(6-(5,5-dimethyl-6,7-dihydro-5H-pyrrolo[2,1-c][1,2,4]triazol-3-yl)pyridin-2-yl)-2-fluoro-4-methylbenzamide] | 50% | 46%
